{"source": "patent US20050215551A1", "about": "“1-[2H-1-benzopyran-2-one-8-yl]- piperazine derivatives for the treatment of movement disorders” (SOLVAY PHARMACEUTICALS B.V., priority 2004, published 2005)", "key": {"nicotine": {"biological_target": "nicotine (Rattus norvegicus, UniProt P09483+P12390)", "sequence (P12390 25-500)": "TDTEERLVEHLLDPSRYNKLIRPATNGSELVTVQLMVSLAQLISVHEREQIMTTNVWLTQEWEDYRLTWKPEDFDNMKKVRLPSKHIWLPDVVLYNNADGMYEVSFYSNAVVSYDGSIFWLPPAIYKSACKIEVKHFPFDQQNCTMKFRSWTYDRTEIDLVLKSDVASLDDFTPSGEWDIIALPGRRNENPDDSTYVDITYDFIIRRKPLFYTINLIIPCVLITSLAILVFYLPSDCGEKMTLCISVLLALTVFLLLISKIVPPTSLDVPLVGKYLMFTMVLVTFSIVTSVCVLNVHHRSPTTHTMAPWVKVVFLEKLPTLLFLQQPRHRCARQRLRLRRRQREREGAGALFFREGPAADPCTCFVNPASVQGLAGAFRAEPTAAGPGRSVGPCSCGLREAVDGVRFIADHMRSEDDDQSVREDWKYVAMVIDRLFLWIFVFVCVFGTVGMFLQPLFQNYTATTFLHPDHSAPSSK", "sequence (P09483 31-630)": "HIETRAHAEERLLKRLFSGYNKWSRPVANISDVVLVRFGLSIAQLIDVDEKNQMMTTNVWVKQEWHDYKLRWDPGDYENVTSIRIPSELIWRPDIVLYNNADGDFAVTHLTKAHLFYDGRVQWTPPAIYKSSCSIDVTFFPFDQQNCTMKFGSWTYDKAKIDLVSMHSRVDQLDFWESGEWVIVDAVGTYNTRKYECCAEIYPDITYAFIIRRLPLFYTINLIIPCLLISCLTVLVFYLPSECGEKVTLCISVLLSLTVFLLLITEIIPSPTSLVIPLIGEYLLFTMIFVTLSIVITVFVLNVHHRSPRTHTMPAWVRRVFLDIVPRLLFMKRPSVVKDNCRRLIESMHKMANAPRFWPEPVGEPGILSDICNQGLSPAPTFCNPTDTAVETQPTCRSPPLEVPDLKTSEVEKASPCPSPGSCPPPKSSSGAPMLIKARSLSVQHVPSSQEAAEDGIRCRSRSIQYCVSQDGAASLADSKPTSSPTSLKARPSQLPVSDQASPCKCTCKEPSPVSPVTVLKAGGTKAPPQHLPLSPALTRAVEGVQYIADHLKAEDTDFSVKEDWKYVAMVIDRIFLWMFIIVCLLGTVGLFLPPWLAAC", "test": "Receptor binding nicotine", "conditions": "radioligand [3H]-cytisine, read-out: Ki(nM) Compound 1", "procedure": "(§1) Receptor binding data were obtained by CEREP (128, rue Danton, 92500 Rueil-Malmaison, France) or at Solvay Pharmaceuticals B.V., using well documented standard procedures. Affinity for 5-HT1A receptors for instance, was determined by testing the ability of the compounds of the invention to displace [^3H]-2-(di-n-propylamino)-8-hydroxytetralin ([^3H]-8-OH-DPAT) from its specific binding sites in rat frontal cortex homogenates. This test is based on the method described by Gozlan et al. (Nature, 305, (1983), pages 140-142).\n(§2) The binding data collected in the table below were either obtained by CEREP (128, rue Danton, 92500 Rueil-Malmaison, France) or at Solvay Pharmaceuticals B.V., using well documented standard procedures."}, "Adenosine-A1": {"biological_target": "Adenosine-A1 (Homo sapiens, UniProt P30542)", "sequence (P30542 whole entry)": "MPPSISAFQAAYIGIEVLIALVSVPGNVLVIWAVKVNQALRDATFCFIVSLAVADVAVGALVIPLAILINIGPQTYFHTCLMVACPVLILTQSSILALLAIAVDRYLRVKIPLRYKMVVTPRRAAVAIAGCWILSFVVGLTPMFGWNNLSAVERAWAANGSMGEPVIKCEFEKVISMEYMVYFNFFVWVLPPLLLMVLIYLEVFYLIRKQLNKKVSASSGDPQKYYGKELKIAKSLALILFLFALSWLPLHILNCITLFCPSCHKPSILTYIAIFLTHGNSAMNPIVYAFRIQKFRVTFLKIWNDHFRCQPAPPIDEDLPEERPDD", "test": "Receptor binding Adenosine-A1", "conditions": "radioligand [3H]-DPCPX, read-out: Ki(nM) Compound 1", "procedure": "as §1, §2"}, "κ-opiate": {"biological_target": "κ-opiate (Rattus norvegicus, UniProt P34975)", "sequence (P34975 whole entry)": "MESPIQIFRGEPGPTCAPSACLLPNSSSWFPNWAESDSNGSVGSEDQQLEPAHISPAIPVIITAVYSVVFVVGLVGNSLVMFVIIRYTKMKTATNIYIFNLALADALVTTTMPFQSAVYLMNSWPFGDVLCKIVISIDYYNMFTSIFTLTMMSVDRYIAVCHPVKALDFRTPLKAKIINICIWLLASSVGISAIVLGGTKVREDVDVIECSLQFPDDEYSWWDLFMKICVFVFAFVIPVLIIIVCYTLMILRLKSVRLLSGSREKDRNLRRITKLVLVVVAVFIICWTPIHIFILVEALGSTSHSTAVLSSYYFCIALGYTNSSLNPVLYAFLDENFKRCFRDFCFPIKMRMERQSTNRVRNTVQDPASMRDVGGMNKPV", "test": "Receptor binding κ-opiate", "conditions": "radioligand [3H]-U 69593, read-out: Ki(nM) Compound 1", "procedure": "as §1, §2"}, "β3-adrenergic": {"biological_target": "β3-adrenergic (Homo sapiens, UniProt P13945)", "test": "Receptor binding β3-adrenergic", "conditions": "radioligand [125I]-iodocyanopindolol, read-out: Ki(nM) Compound 1", "procedure": "as §1, §2"}, "Endothelin-ETB": {"biological_target": "Endothelin-ETB (Homo sapiens, UniProt P24530)", "test": "Receptor binding Endothelin-ETB", "conditions": "radioligand [125I]-endothelin-1, read-out: Ki(nM) Compound 1", "procedure": "as §1, §2"}, "5-HT5": {"biological_target": "5-HT5 (Homo sapiens, UniProt P47898)", "sequence (P47898 whole entry)": "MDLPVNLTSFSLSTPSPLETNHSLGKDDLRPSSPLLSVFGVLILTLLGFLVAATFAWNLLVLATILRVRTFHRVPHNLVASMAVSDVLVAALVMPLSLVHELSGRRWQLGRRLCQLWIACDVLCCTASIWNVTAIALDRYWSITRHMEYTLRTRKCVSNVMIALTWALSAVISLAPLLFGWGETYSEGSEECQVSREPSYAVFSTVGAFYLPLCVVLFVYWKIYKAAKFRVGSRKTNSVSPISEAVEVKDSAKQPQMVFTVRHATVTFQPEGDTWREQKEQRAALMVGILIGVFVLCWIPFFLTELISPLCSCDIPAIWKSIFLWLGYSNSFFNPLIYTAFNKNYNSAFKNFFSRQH", "test": "Receptor binding 5-HT5", "conditions": "radioligand [3H]-LSD, read-out: Ki(nM) Compound 1", "procedure": "as §1, §2"}, "5-HTreuptake": {"biological_target": "5-HTreuptake (Homo sapiens, UniProt P31645)", "sequence (P31645 whole entry)": "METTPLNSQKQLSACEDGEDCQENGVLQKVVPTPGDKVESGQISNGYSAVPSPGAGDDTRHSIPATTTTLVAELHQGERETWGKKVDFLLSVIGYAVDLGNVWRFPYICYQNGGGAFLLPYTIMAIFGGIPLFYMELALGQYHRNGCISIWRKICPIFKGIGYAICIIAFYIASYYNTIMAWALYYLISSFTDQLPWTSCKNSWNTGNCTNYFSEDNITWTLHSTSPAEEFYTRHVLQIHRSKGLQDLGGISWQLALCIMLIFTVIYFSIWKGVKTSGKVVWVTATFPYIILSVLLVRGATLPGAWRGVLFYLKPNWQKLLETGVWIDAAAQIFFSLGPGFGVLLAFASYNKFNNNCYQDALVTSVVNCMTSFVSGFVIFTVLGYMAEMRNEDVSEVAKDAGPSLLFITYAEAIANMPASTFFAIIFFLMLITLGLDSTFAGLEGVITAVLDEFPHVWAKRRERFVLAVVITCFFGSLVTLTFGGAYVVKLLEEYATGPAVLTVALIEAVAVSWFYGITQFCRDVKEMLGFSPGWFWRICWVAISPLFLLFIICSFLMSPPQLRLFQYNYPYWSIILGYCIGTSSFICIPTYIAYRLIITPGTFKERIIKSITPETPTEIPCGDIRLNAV", "test": "Binding 5-HT reuptake", "conditions": "radioligand [3H]-paroxetine, read-out: Ki(nM) Compound 1", "procedure": "as §1, §2"}, "Dopamine-D4": {"biological_target": "Dopamine-D4 (Homo sapiens, UniProt P21917)", "sequence (P21917 whole entry)": "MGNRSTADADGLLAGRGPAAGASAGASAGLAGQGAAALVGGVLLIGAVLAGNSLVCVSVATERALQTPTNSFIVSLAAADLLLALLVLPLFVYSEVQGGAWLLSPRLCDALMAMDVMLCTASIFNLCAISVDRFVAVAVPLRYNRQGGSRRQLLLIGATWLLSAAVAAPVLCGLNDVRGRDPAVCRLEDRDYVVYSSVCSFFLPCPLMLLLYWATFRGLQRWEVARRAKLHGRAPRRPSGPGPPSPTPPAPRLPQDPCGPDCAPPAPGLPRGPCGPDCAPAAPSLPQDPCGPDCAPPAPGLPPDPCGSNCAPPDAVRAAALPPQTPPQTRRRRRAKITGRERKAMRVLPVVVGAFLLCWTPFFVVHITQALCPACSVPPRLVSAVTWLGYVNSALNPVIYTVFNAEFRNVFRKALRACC", "test": "Receptor binding Dopamine-D4", "conditions": "radioligand [3H]-spiperone, read-out: Ki(nM) Compound 1", "procedure": "as §1, §2"}, "Galanin-GAL1": {"biological_target": "Galanin-GAL1 (Homo sapiens, UniProt P47211)", "sequence (P47211 whole entry)": "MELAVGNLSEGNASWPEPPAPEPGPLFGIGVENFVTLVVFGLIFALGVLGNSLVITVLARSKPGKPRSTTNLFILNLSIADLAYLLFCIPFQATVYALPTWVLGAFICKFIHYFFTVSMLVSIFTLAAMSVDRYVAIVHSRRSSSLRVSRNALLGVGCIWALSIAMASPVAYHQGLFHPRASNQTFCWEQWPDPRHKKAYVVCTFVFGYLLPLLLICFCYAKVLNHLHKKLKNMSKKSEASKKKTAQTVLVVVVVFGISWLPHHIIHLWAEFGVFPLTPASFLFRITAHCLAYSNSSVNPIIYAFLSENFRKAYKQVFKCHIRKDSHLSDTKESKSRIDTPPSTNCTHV", "test": "Receptor binding Galanin-GAL1", "conditions": "radioligand [125I]-galanin, read-out: Ki(nM) Compound 1", "procedure": "as §1, §2"}, "angiotensin-AT2": {"biological_target": "angiotensin-AT2 (Homo sapiens, UniProt P50052)", "test": "Receptor binding angiotensin-AT2", "conditions": "radioligand [125I]-CPG 42112A, read-out: Ki(nM) Compound 1", "procedure": "as §1, §2"}, "Prostaglandin-H2": {"biological_target": "Prostaglandin-H2 (Homo sapiens, UniProt P21731)", "sequence (P21731 whole entry)": "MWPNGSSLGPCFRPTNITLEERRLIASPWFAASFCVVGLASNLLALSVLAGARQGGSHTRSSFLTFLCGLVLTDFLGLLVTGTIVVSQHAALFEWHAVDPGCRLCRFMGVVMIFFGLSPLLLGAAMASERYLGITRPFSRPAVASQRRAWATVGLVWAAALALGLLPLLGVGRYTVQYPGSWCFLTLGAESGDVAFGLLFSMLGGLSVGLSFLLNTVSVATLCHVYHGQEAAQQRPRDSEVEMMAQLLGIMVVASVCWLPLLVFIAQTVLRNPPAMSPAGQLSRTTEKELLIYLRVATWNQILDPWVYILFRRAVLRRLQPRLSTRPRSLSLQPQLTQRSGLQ", "test": "Receptor binding Prostaglandin-H2", "conditions": "radioligand [3H]-SQ 29548, read-out: Ki(nM) Compound 1", "procedure": "as §1, §2"}, "DBA/2 mice": {"tested_on": "DBA/2 mice", "test": "Anticonvulsant activity: audiogenic seizures in DBA/2 mice", "type": "in vivo", "conditions": "for ED50: Mus musculus; for behavioural changes: all dosages tested", "description": "DBA/2 mice weighing 6-12 g (22-26 days old; either sex, Harlan Italy Correzzana, Milano, Italy) are housed in groups of 8-10 under a 12-h light/dark cycle (lights on at 7:00 a.m.) with food and water available ad libitum. The experimental protocol is approved by University of Catanzaro Ethical Committee. All procedures are in compliance with the Nationals Institutes of Health Guide for Care and Use of Laboratory Animals (Publication No. 85-23, revised 1985) and European Communities Council Directive of 24 Nov. 1986 (86/609 EEC).\nThe experiments are performed according to the method previously described by De Sarro et al. (1984), Eur. J. Pharmacol., 104, 55-60. Compounds of the invention or vehicle (controls) are given intraperitoneally (i.p.) and orally (p.o.) as freshly sonicated solutions in methylcellulose 1%. For the […]; pretreatment time at 30 and 60 min., For oral treatment, all animals are pretreated either at 30 or 60 min using the compounds of the invention at doses of 0.1, 0.3, 3, 6 and 10 mg/kg p.o. At least 10 mice per dose are used. After pretreatment time, each mouse is placed under a hemispheric perspex dome (58 cm in diameter) and 1 min is allowed for habituation and assessment of locomotor activity. Animals are challenged with a 12-16 kHz sinusoidal tone at 109 dB. Seizure response is assessed by two independent observers. The sound evoked behaviour is coded using the following scale: 0=no response, 1=wild running, 2=clonus, 3=tonic flexor and/or extensor; 4=respiratory arrest, on the basis of the concordant opinion of the observers. […] The maximum response is recorded for each animal. Rectal temperature is recorded immediately prior to auditory testing using an Elektrolaboratoriet thermometer type T.E.3. Behavioral changes are observed during the period between drug administration and auditory testing. In these experiments separate vehicle-treated and drug-treated groups are used at each pretreatment time (15 min-60 min). Percentage of mice showing wild running, clonic or tonic phase and the duration of anticonvulsant activity are compared to control group and statistically analyzed.\nStatistical comparison between groups of control and drug-treated DBA/2 mice is made using Fisher's exact probability test (incidence of the seizure phases). The percentage incidence of each phase of the audiogenic seizure is determined for each drug. These values are plotted against the corresponding doses by a computer construction of the dose-effect curves for calculation of ED50 (with 95% confidence limits). The ED50 values for each compound are calculated using a computer program of the method of Litchfield and Wilcoxon (1949). At least 32 animals are used to calculate each ED50 value.\nFor systemic injections and oral administrations, all compounds are given intraperitoneally (0.1 ml/10 g of body weight of the mouse) as a freshly prepared solution in methylcellulose 1%. In order to avoid the light sensitivity, weighing and handling are carried out under sodium vapor lamps and the substances are protected from light during the experiments."}, "nociceptin (ORL1)": {"biological_target": "nociceptin (ORL1) (Homo sapiens, UniProt P41146)", "sequence (P41146 whole entry)": "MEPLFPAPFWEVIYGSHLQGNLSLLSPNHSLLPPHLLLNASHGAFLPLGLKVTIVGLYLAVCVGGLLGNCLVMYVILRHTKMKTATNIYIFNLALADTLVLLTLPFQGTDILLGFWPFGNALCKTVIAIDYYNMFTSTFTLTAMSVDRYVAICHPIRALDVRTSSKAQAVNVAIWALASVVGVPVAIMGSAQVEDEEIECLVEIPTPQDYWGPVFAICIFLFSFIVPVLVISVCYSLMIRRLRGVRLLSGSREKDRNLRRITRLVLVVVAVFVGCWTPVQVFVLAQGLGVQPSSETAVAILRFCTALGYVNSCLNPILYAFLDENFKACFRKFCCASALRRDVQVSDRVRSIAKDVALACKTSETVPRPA", "test": "Receptor binding nociceptin (ORL1)", "conditions": "radioligand [3H]-nociceptine, read-out: Ki(nM) Compound 1", "procedure": "as §1, §2"}, "LTD4": {"biological_target": "LTD4 (Cavia porcellus, UniProt Q2NNR5)", "sequence (Q2NNR5 whole entry)": "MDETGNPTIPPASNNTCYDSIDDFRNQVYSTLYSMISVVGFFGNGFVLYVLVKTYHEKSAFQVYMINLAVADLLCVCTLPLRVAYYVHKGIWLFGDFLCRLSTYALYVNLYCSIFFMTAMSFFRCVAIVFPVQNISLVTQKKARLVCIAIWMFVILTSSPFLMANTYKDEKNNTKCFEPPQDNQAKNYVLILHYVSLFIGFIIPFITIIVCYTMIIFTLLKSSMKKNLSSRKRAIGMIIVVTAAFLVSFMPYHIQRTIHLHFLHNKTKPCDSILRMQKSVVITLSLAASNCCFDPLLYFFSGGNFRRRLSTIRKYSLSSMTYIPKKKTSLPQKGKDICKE", "test": "Receptor binding LTD4", "conditions": "radioligand [3H]-LTD4; guinea pig; read-out: Ki(nM) Compound 1", "procedure": "as §1, §2"}}, "note": "Read-outs that look alike come from different tables or passages of the source."}
{"smiles": "Nc1cc2cccc(N3CCNCC3)c2oc1=O", "note": "[Compound 1, 3-amino-8-(1-piperazinyl)-2H-1-benzopyran-2-one]", "values": [{"measurement": "Ki", "setting": "nicotine", "result": "> 10000", "unit": "nM"}, {"measurement": "Ki", "setting": "Adenosine-A1", "result": "> 1000", "unit": "nM"}, {"measurement": "Ki", "setting": "κ-opiate", "result": "> 1000", "unit": "nM"}, {"measurement": "Ki", "setting": "β3-adrenergic", "result": "> 1000", "unit": "nM"}, {"measurement": "Ki", "setting": "Endothelin-ETB", "result": "> 1000", "unit": "nM"}, {"measurement": "Ki", "setting": "5-HT5", "result": 100, "unit": "nM"}, {"measurement": "Ki", "setting": "5-HTreuptake", "result": "> 1000", "unit": "nM"}, {"measurement": "Ki", "setting": "Dopamine-D4", "result": "> 1000", "unit": "nM"}, {"measurement": "Ki", "setting": "Galanin-GAL1", "result": "> 1000", "unit": "nM"}, {"measurement": "Ki", "setting": "angiotensin-AT2", "result": "> 1000", "unit": "nM"}, {"measurement": "Ki", "setting": "Prostaglandin-H2", "result": "> 1000", "unit": "nM"}, {"measurement": "ED50", "setting": "DBA/2 mice; ip, 0.5 h, read-out: ED50 Tonic extension, i.p. administration, 30 minutes after drug administration", "result": 0.66, "unit": "mg/kg"}, {"measurement": "ED50", "setting": "DBA/2 mice; ip, 0.5 h, i.p. administration, 30 minutes after drug administration, read-out: ED50 Clonic seizures", "result": 3.7, "unit": "mg/kg"}, {"measurement": "ED50", "setting": "DBA/2 mice; ip, 0.5 h, i.p. administration, 30 minutes after drug administration, read-out: ED50 Wild running", "result": 39, "unit": "mg/kg"}, {"measurement": "ED50", "setting": "DBA/2 mice; ip, 1 h, i.p. administration, 60 minutes after drug administration, read-out: ED50 Clonic seizures", "result": 1.9, "unit": "mg/kg"}, {"measurement": "ED50", "setting": "DBA/2 mice; ip, 1 h, i.p. administration, 60 minutes after drug administration, read-out: ED50 Tonic extension", "result": 0.26, "unit": "mg/kg"}, {"measurement": "ED50", "setting": "DBA/2 mice; ip, 1 h, i.p. administration, 60 minutes after drug administration, read-out: ED50 Wild running", "result": 20.5, "unit": "mg/kg"}, {"measurement": "ED50", "setting": "DBA/2 mice; po, 0.5 h, p.o. administration, 30 minutes after drug administration, read-out: ED50 Clonic seizures", "result": 4.91, "unit": "mg/kg"}, {"measurement": "ED50", "setting": "DBA/2 mice; po, 0.5 h, read-out: ED50 Tonic extension, p.o. administration, 30 minutes after drug administration", "result": 1.19, "unit": "mg/kg"}, {"measurement": "ED50", "setting": "DBA/2 mice; po, 1 h, p.o. administration, 60 minutes after drug administration, read-out: ED50 Clonic seizures", "result": 1.34, "unit": "mg/kg"}, {"measurement": "ED50", "setting": "DBA/2 mice; po, 1 h, p.o. administration, 60 minutes after drug administration, read-out: ED50 Tonic extension", "result": 0.27, "unit": "mg/kg"}, {"measurement": "behavioural changes", "setting": "DBA/2 mice; i.p. administration", "result": "At none of the dosages tested"}, {"measurement": "behavioural changes", "setting": "DBA/2 mice; oral administration", "result": "At none of the dosages tested"}, {"measurement": "Ki", "setting": "nociceptin (ORL1)", "result": "> 1000", "unit": "nM"}, {"measurement": "Ki", "setting": "LTD4", "result": "> 10000", "unit": "nM"}]}
